Experimental data reported in paper PMC8640094, “Diaportones A–C: Three New Metabolites From Endophytic Fungus Diaporthe foeniculina BZM-15” (Frontiers in Chemistry, 2021).

Columns and labels:
MCF-7 (breast cancer) = test: MTT cytotoxicity assay, MCF-7 cells; format: cell-based, human; conditions: Homo sapiens; for inhibition at 1 µM / inhibition at 2 µM / inhibition at 4 µM / inhibition at 8 µM / inhibition at 16 µM / inhibition at 32 µM / inhibition at 64 µM / inhibition at 128 µM: MCF7, 72 h, three replicates, read-out: cell inhibition; for inhibition at 1 µM: MCF-7, c 1.00 μM; for inhibition at 2 µM: MCF-7, c 2.00 μM; for inhibition at 4 µM: MCF-7, c 4.00 μM; for inhibition at 8 µM: MCF-7, c 8.00 μM; for inhibition at 16 µM: MCF-7, c 16.00 μM; for inhibition at 32 µM: MCF-7, c 32.00 μM; for inhibition at 64 µM: MCF-7, c 64.00 μM; for inhibition at 128 µM: MCF-7, c 128.00 μM; for IC50: MCF7, MTT, 72 h, mean ± SD (n = 3)
Method: (§1) The cytotoxicity of all compounds against three human tumor cell lines, SF-268 (CNS cancer), MCF-7 (breast cancer), and HepG2 (hepatoma cancer), and normal cell line LX-2 was tested using the MTT assay. […] All cells were seeded into 96-well plates at 5 × 10^4 cells/ml and incubated at 37°C under a 5% CO2 atmosphere for 24 h. Then, the tested compounds were added. After 72 h, MTT solution was added into each well, which was further incubated. The cell-free supernatant was removed and formazan crystals were subsequently dissolved in DMSO. Optical density (OD) was recorded at 490 nm on a microplate reader to calculate the IC50 values.

SF-268 (CNS cancer) = test: MTT cytotoxicity assay, SF-268 cells; format: cell-based, human; conditions: Homo sapiens; for inhibition at 1 µM / inhibition at 2 µM / inhibition at 4 µM / inhibition at 8 µM / inhibition at 16 µM / inhibition at 32 µM / inhibition at 64 µM / inhibition at 128 µM: SF-268, 72 h, SF268 cells, triplicate values, read-out: cell inhibition; for inhibition at 1 µM: c 1.00 μM; for inhibition at 2 µM: c 2.00 μM; for inhibition at 4 µM: c 4.00 μM; for inhibition at 8 µM: c 8.00 μM; for inhibition at 16 µM: c 16.00 μM; for inhibition at 32 µM: c 32.00 μM; for inhibition at 64 µM: c 64.00 μM; for inhibition at 128 µM: c 128.00 μM; for IC50: SF-268, MTT, 72 h, mean ± SD (n = 3), read-out: IC50 SF268
Method: (§2) The cytotoxicity of all compounds against three human tumor cell lines, SF-268 (CNS cancer), MCF-7 (breast cancer), and HepG2 (hepatoma cancer), and normal cell line LX-2 was tested using the MTT assay. Adriamycin was used as a positive control. All cells were seeded into 96-well plates at 5 × 10^4 cells/ml and incubated at 37°C under a 5% CO2 atmosphere for 24 h. Then, the tested compounds were added. After 72 h, MTT solution was added into each well, which was further incubated. The cell-free supernatant was removed and formazan crystals were subsequently dissolved in DMSO. Optical density (OD) was recorded at 490 nm on a microplate reader to calculate the IC50 values.

[1] = test system: three human cancer cell lines (SF-268, MCF-7, and HepG2); test: MTT cytotoxicity, summary over three human cancer cell lines; format: cell-based
Method: as §2

HepG2 (hepatoma cancer) = test: MTT cytotoxicity assay, HepG2 cells; format: cell-based, human; conditions: Homo sapiens; for inhibition at 1 µM / inhibition at 2 µM / inhibition at 4 µM / inhibition at 8 µM / inhibition at 16 µM / inhibition at 32 µM / inhibition at 64 µM / inhibition at 128 µM: HepG2, 72 h, three replicates, read-out: cell inhibition; for inhibition at 1 µM: HepG2, c 1.00 μM; for inhibition at 2 µM: HepG2, c 2.00 μM; for inhibition at 4 µM: HepG2, c 4.00 μM; for inhibition at 8 µM: HepG2, c 8.00 μM; for inhibition at 16 µM: HepG2, c 16.00 μM; for inhibition at 32 µM: HepG2, c 32.00 μM; for inhibition at 64 µM: HepG2, c 64.00 μM; for inhibition at 128 µM: HepG2, c 128.00 μM; for IC50: HepG2, MTT, 72 h, mean ± SD (n = 3)
Method: as §2

normal cell line LX-2 = test: MTT cytotoxicity assay, normal cell line LX-2; format: cell-based; conditions: for inhibition at 1 µM / inhibition at 2 µM / inhibition at 4 µM / inhibition at 8 µM / inhibition at 16 µM / inhibition at 32 µM / inhibition at 64 µM / inhibition at 128 µM / IC50: 72 h; for inhibition at 1 µM: LX-2, c 1.00 μM; for inhibition at 1 µM / inhibition at 2 µM / inhibition at 4 µM / inhibition at 8 µM / inhibition at 16 µM / inhibition at 32 µM / inhibition at 64 µM / inhibition at 128 µM: three replicates; for inhibition at 2 µM: LX-2, c 2.00 μM; for inhibition at 4 µM: LX-2, c 4.00 μM; for inhibition at 8 µM: LX-2, c 8.00 μM; for inhibition at 16 µM: LX-2, c 16.00 μM; for inhibition at 32 µM: LX-2, c 32.00 μM; for inhibition at 64 µM: LX-2, c 64.00 μM; for inhibition at 128 µM: LX-2, c 128.00 μM; for IC50: MTT, mean ± SD (n = 3)
Method: as §1

Structure (SMILES)	inhibition at 1 µM (MCF-7 (breast cancer)) [%]	inhibition at 2 µM (MCF-7 (breast cancer)) [%]	inhibition at 4 µM (MCF-7 (breast cancer)) [%]	inhibition at 8 µM (MCF-7 (breast cancer)) [%]	inhibition at 16 µM (MCF-7 (breast cancer)) [%]	inhibition at 32 µM (MCF-7 (breast cancer)) [%]	inhibition at 64 µM (MCF-7 (breast cancer)) [%]	inhibition at 128 µM (MCF-7 (breast cancer)) [%]	IC50 (MCF-7 (breast cancer)) [µM]	inhibition at 1 µM (SF-268 (CNS cancer)) [%]	inhibition at 2 µM (SF-268 (CNS cancer)) [%]	inhibition at 4 µM (SF-268 (CNS cancer)) [%]	inhibition at 8 µM (SF-268 (CNS cancer)) [%]	inhibition at 16 µM (SF-268 (CNS cancer)) [%]	inhibition at 32 µM (SF-268 (CNS cancer)) [%]	inhibition at 64 µM (SF-268 (CNS cancer)) [%]	inhibition at 128 µM (SF-268 (CNS cancer)) [%]	IC50 (SF-268 (CNS cancer)) [µM]	inhibition at 1 µM (HepG2 (hepatoma cancer)) [%]	inhibition at 2 µM (HepG2 (hepatoma cancer)) [%]	other results
CC(C)[C@@H](C)/C=C/[C@@H](C)[C@H]1CCC(=O)[C@]23CC(=O)C4=CC(=O)CC[C@]4(C)[C@H]2CC[C@]13C [compound 7, dankasterone A]	35.5	47.2	64.9	72.1	81	98.2	97.5	98.3	3.6 ± 1.1	16.3	31.1	46.5	58.4	69.7	90.9	96.1	99.2	6.7 ± 0.7	31.1	39.6	cell inhibition against three human cancer cell lines, in words [1]: good cell inhibition; IC50 ([1]; Homo sapiens, read-out: IC50 values, range over three cell lines): 3.6 to 15.8 µM; inhibition at 4 µM (HepG2 (hepatoma cancer)): 49%; inhibition at 8 µM (HepG2 (hepatoma cancer)): 76.9%; inhibition at 16 µM (HepG2 (hepatoma cancer)): 83.3%; inhibition at 32 µM (HepG2 (hepatoma cancer)): 98%; inhibition at 64 µM (HepG2 (hepatoma cancer)): 99%; inhibition at 128 µM (HepG2 (hepatoma cancer)): 98.5%; IC50 (HepG2 (hepatoma cancer)): 4.9 ± 0.9 µM; inhibition at 1 µM (normal cell line LX-2): 14.7%; inhibition at 2 µM (normal cell line LX-2): 18.4%; inhibition at 4 µM (normal cell line LX-2): 26.4%; inhibition at 8 µM (normal cell line LX-2): 31.4%; inhibition at 16 µM (normal cell line LX-2): 33.1%; inhibition at 32 µM (normal cell line LX-2): 43.2%; inhibition at 64 µM (normal cell line LX-2): 81.3%; inhibition at 128 µM (normal cell line LX-2): 92.6%; IC50 (normal cell line LX-2): > 40 µM; activity on the normal cell line LX-2 (normal cell line LX-2; in words): not active
CC1(O)CC2OC23C(C)(C)C(Cl)CCC3(C)C1C(=O)O (stereo not drawn) [compound 6, altiloxin B]	1.37	4.01	8.56	13	18.9	24.3	59.3	66.4	> 40	3.44	5.06	7.23	9.25	12.9	22.6	49.5	60.3	> 40	1.37	5.78	inhibition at 4 µM (HepG2 (hepatoma cancer)): 10.6%; inhibition at 8 µM (HepG2 (hepatoma cancer)): 14.6%; inhibition at 16 µM (HepG2 (hepatoma cancer)): 19.5%; inhibition at 32 µM (HepG2 (hepatoma cancer)): 26.6%; inhibition at 64 µM (HepG2 (hepatoma cancer)): 63.3%; inhibition at 128 µM (HepG2 (hepatoma cancer)): 79.7%; IC50 (HepG2 (hepatoma cancer)): > 40 µM; inhibition at 1 µM (normal cell line LX-2): 8.12%; inhibition at 2 µM (normal cell line LX-2): 11.8%; inhibition at 4 µM (normal cell line LX-2): 15.9%; inhibition at 8 µM (normal cell line LX-2): 26.5%; inhibition at 16 µM (normal cell line LX-2): 31.3%; inhibition at 32 µM (normal cell line LX-2): 40.5%; inhibition at 64 µM (normal cell line LX-2): 65%; inhibition at 128 µM (normal cell line LX-2): 73.5%; IC50 (normal cell line LX-2): > 40 µM
CCCC(O)C1=C(C)C(=O)CC1C (stereo not drawn) [compound 4, phomotenone]	3.45	7.63	13.1	20.4	27.3	36.1	50.6	72.2	> 40	5.57	8.31	7.46	13.1	23.8	46.7	74.3	82.1	> 40	6.5	7.63	inhibition at 4 µM (HepG2 (hepatoma cancer)): 14.3%; inhibition at 8 µM (HepG2 (hepatoma cancer)): 20.2%; inhibition at 16 µM (HepG2 (hepatoma cancer)): 31.4%; inhibition at 32 µM (HepG2 (hepatoma cancer)): 37.3%; inhibition at 64 µM (HepG2 (hepatoma cancer)): 54.7%; inhibition at 128 µM (HepG2 (hepatoma cancer)): 73%; IC50 (HepG2 (hepatoma cancer)): > 40 µM; inhibition at 1 µM (normal cell line LX-2): 7.34%; inhibition at 2 µM (normal cell line LX-2): 9.3%; inhibition at 4 µM (normal cell line LX-2): 12%; inhibition at 8 µM (normal cell line LX-2): 18.1%; inhibition at 16 µM (normal cell line LX-2): 24.6%; inhibition at 32 µM (normal cell line LX-2): 41.1%; inhibition at 64 µM (normal cell line LX-2): 70%; inhibition at 128 µM (normal cell line LX-2): 87.1%; IC50 (normal cell line LX-2): > 40 µM
